# Reference: patent publication US20220160686A1, “MACROCYCLIC AZOLOPYRIDINE DERIVATIVES AS EED AND PRC2 MODULATORS” (Fulcrum Therapeutics, Inc., priority 2019, published 2022)
# Like-named read-outs stand apart in the source and are kept apart here.
# Assays:
# [1] = molecular target: EZH2/PRC2 complex (Homo sapiens, UniProt O75530); test: Histone methyltransferase assay (radioisotope-based HotSpot); type: biochemical; conditions: EZH2/PRC2 complex 10 nM, core histone substrate 0.05 mg/ml, 3H-SAM 1 μM; read-out: IC50, inhibitory effects on the HMT enzyme
# Method: Effect of compounds of the present disclosure on EZH2/PRC2 complex methyltransferase functional activity was measured using the radioisotope-based HotSpot assay described by Horiuchi, K. Y., et al. Assay Drug Dev Technol. 11(4):227-36 (2013). Briefly, compounds were prepared in a 10-point 3-fold serial dilution in DMSO from a 10 mM stock in ECHO qualified plate using Assist Plus (Integra Biosciences) liquid handler. […] Nanoliter quantities of each compound's concentration series were transferred into the enzyme/substrate mix using (Echo 550, LabCyte Inc. Sunnyvale, Calif.) acoustic dispenser and pre-incubated for 20 min at room temperature. The methylation reaction was initiated by the addition of 1 μl of 5 μM S-Adenosyl-L-[methyl-^3H]methionine (^3H-SAM) and incubated at 30° C. for 1 h. The final concentration of the EZH2/PRC2 complex, core histone substrate and ^3H-SAM were 10 nM, 0.05 mg/ml, and 1 μM respectively. The % activity of test samples were calculated with reference to positive (no compound) and negative (no EZH2/PRC2) controls on the plate using Excel (Microsoft). The resulting values were exported to Prism (GraphPad software) to generate concentration response curves and IC50 values using the four-parameter logistic equation.
# [2] = test system: human P-glycoprotein HEK cells (HEK-P-gp); test: H3K27me3 immunocytochemistry assay in P-gp expressing HEK293T cells, with or without elacridar; type: cell-based; conditions: Homo sapiens, 4 days compound treatment
# Procedure, shortened: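 HEK293T stably expressing human ABCB1 (vinblastine-selected), 1000 cells/well, treated with serially diluted compound for 4 days at 37° C, with or without 250 nM elacridar. Fixed cells stained with anti-H3K27me3 plus Alexa 488 secondary and Hoechst; imaged at 10×, nuclei identified by Hoechst.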
# [3] = HEK293, 96 h, without elacridar, read-out: IC50, inhibitory activity on human P-glycoprotein HEK cells (HEK-P-gp)
# [4] = HEK293, with 250 nM elacridar, read-out: IC50, inhibitory activity on human P-glycoprotein HEK cells (HEK-P-gp) pretreated with elacridar
# Chain of EZH2/PRC2 complex (O75530 whole entry): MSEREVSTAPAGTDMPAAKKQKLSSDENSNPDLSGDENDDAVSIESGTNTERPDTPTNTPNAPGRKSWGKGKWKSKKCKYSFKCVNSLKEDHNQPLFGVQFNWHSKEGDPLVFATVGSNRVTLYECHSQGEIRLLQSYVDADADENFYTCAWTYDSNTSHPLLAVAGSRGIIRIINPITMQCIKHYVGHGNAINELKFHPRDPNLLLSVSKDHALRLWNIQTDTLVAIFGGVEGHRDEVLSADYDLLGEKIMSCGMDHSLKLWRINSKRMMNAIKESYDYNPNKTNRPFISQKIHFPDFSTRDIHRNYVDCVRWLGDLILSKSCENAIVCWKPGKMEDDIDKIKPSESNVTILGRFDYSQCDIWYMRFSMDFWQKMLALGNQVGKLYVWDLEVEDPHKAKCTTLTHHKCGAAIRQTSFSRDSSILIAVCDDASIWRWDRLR
# Chain of EZH2/PRC2 complex (Q15910 whole entry partner): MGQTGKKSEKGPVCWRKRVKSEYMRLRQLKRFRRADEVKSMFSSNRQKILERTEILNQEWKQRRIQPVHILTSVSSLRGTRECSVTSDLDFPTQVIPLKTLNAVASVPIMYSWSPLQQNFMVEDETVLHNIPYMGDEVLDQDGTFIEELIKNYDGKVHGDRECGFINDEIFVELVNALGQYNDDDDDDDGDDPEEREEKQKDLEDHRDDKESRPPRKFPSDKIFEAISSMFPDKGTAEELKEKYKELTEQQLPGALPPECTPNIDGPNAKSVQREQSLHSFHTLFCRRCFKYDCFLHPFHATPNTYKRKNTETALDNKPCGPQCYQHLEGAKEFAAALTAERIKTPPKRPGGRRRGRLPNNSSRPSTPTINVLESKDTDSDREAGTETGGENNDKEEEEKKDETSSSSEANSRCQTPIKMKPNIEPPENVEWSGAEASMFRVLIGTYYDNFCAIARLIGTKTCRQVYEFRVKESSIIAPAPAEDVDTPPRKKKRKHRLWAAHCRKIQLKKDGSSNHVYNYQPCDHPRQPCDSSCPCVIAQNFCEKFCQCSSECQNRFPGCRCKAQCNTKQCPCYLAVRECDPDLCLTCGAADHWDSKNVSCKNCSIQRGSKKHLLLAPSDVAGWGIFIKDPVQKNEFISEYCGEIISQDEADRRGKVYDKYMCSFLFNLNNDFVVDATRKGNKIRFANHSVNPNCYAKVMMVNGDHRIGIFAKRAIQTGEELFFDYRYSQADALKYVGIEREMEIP
# Chain of EZH2/PRC2 complex (Q15022 whole entry partner): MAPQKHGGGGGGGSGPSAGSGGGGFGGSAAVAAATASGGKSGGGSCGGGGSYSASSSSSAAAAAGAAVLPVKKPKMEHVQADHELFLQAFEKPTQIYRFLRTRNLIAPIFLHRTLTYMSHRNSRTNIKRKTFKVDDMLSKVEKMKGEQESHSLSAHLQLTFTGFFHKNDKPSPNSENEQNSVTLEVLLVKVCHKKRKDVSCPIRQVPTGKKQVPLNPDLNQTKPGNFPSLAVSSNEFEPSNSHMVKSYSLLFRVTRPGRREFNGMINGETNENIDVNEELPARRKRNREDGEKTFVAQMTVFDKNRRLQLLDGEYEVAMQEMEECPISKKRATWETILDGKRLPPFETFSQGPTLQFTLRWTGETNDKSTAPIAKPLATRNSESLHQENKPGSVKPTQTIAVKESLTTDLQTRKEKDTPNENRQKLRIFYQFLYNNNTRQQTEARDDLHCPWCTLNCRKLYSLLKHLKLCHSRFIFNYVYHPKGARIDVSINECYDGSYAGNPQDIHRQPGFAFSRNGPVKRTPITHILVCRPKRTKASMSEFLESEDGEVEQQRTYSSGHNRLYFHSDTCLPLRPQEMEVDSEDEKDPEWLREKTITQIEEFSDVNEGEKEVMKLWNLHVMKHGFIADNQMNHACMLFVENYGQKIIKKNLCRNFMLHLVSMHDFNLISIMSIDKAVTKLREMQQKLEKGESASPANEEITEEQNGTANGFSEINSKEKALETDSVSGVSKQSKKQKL
IC50 [1],SMILES,"IC50 [2, 3]","IC50 [2, 4]"
< 0.025 µM,"Cc1ncc(-c2cc3c(n4cnnc24)NCc2c(F)ccc4c2[C@@H](CO4)CO3)c(C)n1 [Compound 13, (S)-4-(2,4-dimethylpyrimidin-5-yl)-12-fluoro-7a,8,13,14-tetrahydro-7H-[1,2,4]triazolo[4′,3′:1,6]pyrido[3,2-b]benzofuro[4,3-fg][1,4]oxazonine]",0.025 to 0.05 µM,< 0.025 µM
< 0.025 µM,"Cn1nccc1-c1cc2c(n3cc(C#N)nc13)NCc1c(F)ccc3c1[C@@H](CO3)CO2 [Compound 172, (S)-5-fluoro-12-(1-methyl-1H-pyrazol-5-yl)-6,7,15,15a-tetrahydro-1H-benzofuro[4,3-fg]imidazo[r,2′:1,6]pyrido[3,2-b][1,4]oxazonine-10-carbonitrile]",0.025 to 0.05 µM,0.025 to 0.05 µM
< 0.025 µM,"CC(=O)N1CCC(c2cc3c(n4cnnc24)NCc2c(F)cccc2CCO3)CC1 [Compound 4, 1-(4-(12-fluoro-7,8,13,14-tetrahydro-[1,2,4]triazolo[4′,3′:1,6]pyrido[3,2-b]benzo[f][1,4]oxazonin-4-yl)piperidin-1-yl)ethan-1-one]",> 0.5 µM,> 0.5 µM
